System: B. tabaci b-biotype adults and nymphs
Assay: Field trial on silverleaf whitefly against conventional insecticide (Example 21)
Assay type: in vivo, Bemisia tabaci
Settings: formulations 2.0 L/ha, Diafenthiuron 0.80 L/ha
Method: The trial was conducted in an irrigated conventional cotton crops in a cotton farm. […] Each replicated plot measured 24 m wide 100 m long.
Foliar applications of each treatment were made over two weeks. Pre-treatment counts were made visually of B. tabaci adults and nymphs, on the under-surface of leaves of cotton plants in each treatment. […] Data of both adults and nymphs were expressed as numbers per leaf for each treatment.
Treatment and sample dates were the independent variables.

With `CC(C)c1cc(Oc2ccccc2)cc(C(C)C)c1NC(=S)NC(C)(C)C` [Diafenthiuron] the “Bemisia tabaci adults per leaf, 3 DAT” value was 15.33 ± 1.45 a per leaf, the “Bemisia tabaci adults per leaf, 7 DAT” value was 20.33 ± 2.40 ab per leaf and the “Bemisia tabaci adults per leaf, 14 DAT” value was 12.00 ± 0.88 a per leaf. For the same compound, the “Bemisia tabaci nymphs per leaf, 3 DAT” value was 28.67 ± 7.22 b per leaf, the “Bemisia tabaci nymphs per leaf, 7 DAT” value was 15.33 ± 2.40 a per leaf and the “Bemisia tabaci nymphs per leaf, 14 DAT” value was 17.00 ± 1.73 b per leaf. The “Bemisia tabaci adults, 3 DAT (% mortality)” value (relative to the control) was “(54.7%)”, the “Bemisia tabaci adults, 7 DAT (% mortality)” value (relative to the control) was “(32.2%)” and the “Bemisia tabaci adults, 14 DAT (% mortality)” value (relative to the control) was “(34.5%)”. For the same compound, the “Bemisia tabaci nymphs, 7 DAT (% mortality)” value (relative to the control) was “(22.1%)”, the “Bemisia tabaci nymphs, 14 DAT (% mortality)” value (relative to the control) was “(60.6%)” and the “Bemisia tabaci adults, 3 DAT (% mortality)” value (relative to the control, listed as conventional insecticide) was 38.7%.
